Key:
[1] = target: T1, IP6K1^L210V (Homo sapiens, UniProt Q92551, L210V); experiment: High-throughput screen, reverse kinase reaction (5PP-InsP5 + ADP), Kinase-Glo luminescence; type: biochemical
T1 construct: made in house; host or cells: E. coli Arctic Express
Excerpt: Although the NMR assay described above provides direct product detection and the ability to distinguish the PP-InsP isomers ([Harmel et al., 2019]), it is inherently slow and thus not compatible with a high-throughput screen. The use of luminescence-based readouts of ATP consumption to measure IP6K activity is error-prone due to the kinase’s unusually low affinity for ATP, the sensitivity to the ATP/ADP ratio, and its inherent ATPase activity ([Wundenberg et al., 2014]; [Voglmaier et al., 1996]). Nevertheless, we were able to take advantage of these properties by examining the reverse reaction of IP6K1 with the Kinase-Glo assay, where 5PP-InsP5 and ADP are converted to InsP6 and ATP (Figure 3a).
The following solutions were prepared as 4× stock solutions: kinase buffer (HEPES pH 7.4, NaCl, BSA, MgCl2, Tween-20, DTT, and IP6K1^L210V), DMSO/inhibitor, ADP, and 5PP-InsP5. Final concentrations after optimization were 1 mM ADP, 20 mM HEPES, 50 mM NaCl, 0.2 mg/ml BSA, 2 mM MgCl2, 0.05% Tween-20, 1 mM DTT, 250 nM IP6K1^L210V, and 50 μM 5PP-InsP5. The reactions were carried out in 384-well plates following this procedure. 5 µl 4× kinase buffer (buffer only for no kinase controls), 5 µl 4× DMSO or inhibitor and 5 µl 4× ADP solution were subsequently added to all wells. After 10 min equilibration, 5 μl 4× 5PP-InsP5 were added to start the reaction (milli-Q water for negative controls). After 3 hr at room temperature, 20 µl of Promega Kinase-Glo Plus reagent were added and the luminescence read out with a Tecan Infinite M Plex reader using 100-ms exposure time after 10 min of equilibration.
ADP was prepared in a 2× stock solution in milli-Q water and the pH adjusted to 7.0. The following solutions were prepared as 4× stock solutions: kinase buffer (HEPES pH 7.4, NaCl, BSA, MgCl2, Tween-20, DTT, and IP6K1^L210V) and 5PP-InsP5. Final concentrations were 1 mM ADP, 20 mM HEPES, 50 mM NaCl, 0.2 mg/ml BSA, 2 mM MgCl2, 0.05% Tween-20, 1 mM DTT, 250 nM IP6K1^L210V, and 50 µM 5PP-InsP5. The reactions were carried out in 384-well plates following this procedure. 10 µl 2× ADP solution were added to all wells, then 0.2 µl DMSO or compound (1 mM in DMSO) were added followed by the addition of 5 µl 4× kinase buffer. For dose–response curves, compounds were added in serial dilution (twofold serial dilutions in DMSO across multiple plates prior to compound transfer to assay plates, 9 concentrations in total). After 10 min equilibration, 5 µl 4× 5PP-InsP5 were added to start the reaction (milli-Q water for negative controls). After 3 hr at room temperature, 20 µl of Promega Kinase-Glo Plus reagent were added and the luminescence read out with a Tecan Infinite M Plex or Perkin Elmer EnVision reader using 100ms exposure time after 10 min of equilibration. In the counter screen, dose–response curves were measured in the absence of kinase and presence of 50 µM ATP.

[2] = target: T2, IP6K1^wt (Homo sapiens, UniProt Q92551); experiment: as above; type: biochemical; settings: dose-dependent reconfirmation
T2 construct: made in house; host or cells: E. coli Arctic Express
T2 sequence (Q92551 whole entry): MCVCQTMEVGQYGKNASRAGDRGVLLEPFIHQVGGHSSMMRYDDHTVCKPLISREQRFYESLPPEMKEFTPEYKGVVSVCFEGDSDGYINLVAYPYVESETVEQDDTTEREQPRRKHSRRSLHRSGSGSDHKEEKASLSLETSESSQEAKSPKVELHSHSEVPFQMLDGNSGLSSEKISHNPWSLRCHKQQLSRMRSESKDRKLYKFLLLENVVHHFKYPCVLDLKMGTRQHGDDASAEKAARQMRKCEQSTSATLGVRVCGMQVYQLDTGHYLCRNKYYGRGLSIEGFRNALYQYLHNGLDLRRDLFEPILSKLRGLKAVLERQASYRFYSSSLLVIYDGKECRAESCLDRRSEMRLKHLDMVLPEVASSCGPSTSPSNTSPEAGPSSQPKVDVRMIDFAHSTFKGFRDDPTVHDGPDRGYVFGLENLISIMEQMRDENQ

[3] = target: T1, IP6K1^L210V; experiment: Michaelis–Menten and Lineweaver–Burk kinetics (NMR); type: biochemical; settings: versus ATP, two inhibitor concentrations
Procedure: Kinetic assays were performed in D2O in a total volume of 500 µl containing the same buffer components for IP6K and IP6KA constructs as stated for the NMR activity assays above. […] If applicable, inhibitor was added as a DMSO-d6 stock at a final DMSO concentration of 1%. Otherwise, DMSO-d6 was added to the same percentage. The samples were equilibrated at 37°C for 5 min and the reaction initiated by adding 100 µM [^13C6]-InsP6. The reaction time was adjusted so that conversion would not exceed 20% to remain in the linear range for initial velocity measurements. The reaction was quenched with 38 µl 700 mM EDTA pH* 8.0 and transferred into an NMR tube before being measured on a Bruker […] 600 PLUS with an NMR pulse program developed previously ([Harmel et al., 2019]). Initial velocities were calculated by dividing the amount of generated product by the product of reaction time in seconds and mass of the kinase in mg.

[4] = target: T3, MBP-HsIP6K1^wt (Homo sapiens, UniProt Q92551); experiment: Hydrogen deuterium exchange mass spectrometry (HDX-MS), apo vs inhibitor-bound; type: binding; settings: IP6K1^wt apo vs inhibitor-bound
T3 construct: made in house; host or cells: E. coli Arctic Express
T3 sequence (Q92551 whole entry): as above
Procedure: (§1) Prior to initiation of deuterium exchange reactions, enzymes were incubated with inhibitor or DMSO blank for 15 min at RT (final concentration: 3 µM enzyme, 50 µM inhibitor, in a buffer consisting of 20 mM HEPES 7.4, 50 mM NaCl, 1% DMSO). From this mixture, 5 µl was taken per sample and 45 µl of deuterated buffer was added to initiate deuterium exchange (final concentrations: 300 nM enzyme, 5 µM inhibitor; final buffer concentration: 20 mM HEPES 7.4, 50 mM NaCl, 85.63% deuterium, 0.1% DMSO). Reactions were carried out in triplicate at 3 (3, 30, and 300 s) or four different time points (0.3, 3, 30, and 300 s) and were quenched by the addition of 20 µl of ice-cold quench buffer (final concentration: 0.57 M GuaHCL, 0.86% formic acid). Samples were snap-frozen in liquid nitrogen and then stored at −80°C until mass analysis.
(§2) Samples were rapidly thawed and injected onto an ultra-performance liquid chromatography (UPLC) at 2°C. […] Peptides were identified using data-dependent acquisition methods following tandem MS/MS experiments. MS/MS datasets were analyzed using MaxQuant against a database of purified proteins and known contaminants with an false discovery rate (FDR) cut-off of 1%.
(§3) Deuterium incorporation of peptides was automatically calculated using HDExaminer Software (Sierra Analytics). […]

[5] = target: T4, MBP-HsIP6K1^L210V (Homo sapiens, UniProt Q92551, L210V); experiment: as above; type: binding; settings: IP6K1^L210V apo vs bound to FMP-201300
T4 construct: made in house; host or cells: E. coli Arctic Express
T4 sequence (Q92551 whole entry L210V): as the sequence (Q92551 whole entry) above, with L210V counted along it
Procedure: as §1, §2, §3

T1 sequence (Q92551 whole entry L210V): as the sequence (Q92551 whole entry) above, with L210V counted along it

O=C(O)c1ccc2c(c1)C(=O)N(c1ccc(-c3nc4ccc(N5C(=O)c6ccc(C(=O)O)cc6C5=O)cc4[nH]3)cc1)C2=O [FMP-201300]
IC50 ([1]; Kinase-Glo, reverse reaction, dose-dependent reconfirmation): 1.6 µM
Z-score ([1]; primary screen, IP6K1^L210V): -24.0
%Activity ([1]; primary screen, residual activity of IP6K1^L210V): 12.5%
IC50 [2]: 17 µM
mechanism of inhibition (Lineweaver–Burk) [3]: allosteric mechanism
change in deuterium incorporation upon inhibitor binding [4]: no significant changes in deuterium incorporation were observed
change in deuterium exchange rates upon inhibitor binding [5]: Major decreases in exchange rates were observed in proximity to the ATP-binding site

Reference: article PMC10578927, “An unconventional gatekeeper mutation sensitizes inositol hexakisphosphate kinases to an allosteric inhibitor” (eLife, 2023)
